# According to PubChem BioAssay AID328 (DTP/NCI, 2004):
# “And” between values parts separate entries of the source, which are not always exact repeats. Equal values may be shown once. Inconclusive results and toxic doses are left out.
# Test system: BDF1 mice, P388 leukemia ip, median survival T/C
# Assay: NCI In Vivo Anticancer Drug Screen. Data for tumor model P388 Leukemia (intraperitoneal) in B6D2F1 (BDF1) mice
# Conditions: endpoint: median survival time, higher = longer survival
# How it was run: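 T/C = treated-group survival ÷ vehicle-control survival; tumour transplanted into mice before dosing.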
# [1] = dose: 100.0 mg/kg/injection, schedule: Q01DX009 (ip), vehicle: Klucel (hydroxypropylcellulose) (HPC)
# [2] = dose: 100.0 mg/kg/injection, schedule: Q04DX003 (ip), vehicle: Klucel (hydroxypropylcellulose) (HPC)
# [3] = dose: 200.0 mg/kg/injection, schedule: Q01DX009 (ip), vehicle: Klucel (hydroxypropylcellulose) (HPC)
# [4] = dose: 200.0 mg/kg/injection, schedule: Q04DX003 (ip), vehicle: Klucel (hydroxypropylcellulose) (HPC)
# [5] = dose: 100.0 mg/kg/injection, schedule: Q04DX003 (ip), vehicle: saline sonified
# [6] = dose: 200.0 mg/kg/injection, schedule: Q04DX003 (ip), vehicle: saline sonified
# [7] = dose: 400.0 mg/kg/injection, schedule: Q01DX009 (ip), vehicle: Klucel (hydroxypropylcellulose) (HPC)
# [8] = dose: 50.0 mg/kg/injection, schedule: Q01DX009 (ip), vehicle: saline
# [9] = dose: 100.0 mg/kg/injection, schedule: Q01DX009 (ip), vehicle: saline with Tween-80
# [10] = dose: 100.0 mg/kg/injection, schedule: Q01DX009 (ip), vehicle: saline
# [11] = dose: 200.0 mg/kg/injection, schedule: Q01DX009 (ip), vehicle: saline with Tween-80
# [12] = dose: 400.0 mg/kg/injection, schedule: Q04DX003 (ip), vehicle: saline sonified
# [13] = dose: 50.0 mg/kg/injection, schedule: Q01DX009 (ip), vehicle: saline with Tween-80
compound,measurement,setting,value
O=NN(CS(=O)(=O)O)c1ccccc1,T/C,"dose: 50.0 mg/kg/injection, schedule: Q01DX001 (ip), vehicle: saline with Tween-80",104 % of control
same,T/C,"dose: 50.0 mg/kg/injection, schedule: Q04DX003 (ip), vehicle: Klucel (hydroxypropylcellulose) (HPC)",104 % of control
same,T/C,"dose: 100.0 mg/kg/injection, schedule: Q01DX001 (ip), vehicle: saline with Tween-80",104 % of control
same,T/C,[1],104 % of control
same,T/C,[2],113 % of control
same,T/C,"dose: 200.0 mg/kg/injection, schedule: Q01DX001 (ip), vehicle: saline with Tween-80",122 % of control
same,T/C,[3],108 % of control
same,T/C,[4],109 % of control
CCNc1c([N+](=O)[O-])cc(S(=O)(=O)O)cc1[N+](=O)[O-],T/C,"dose: 50.0 mg/kg/injection, schedule: Q04DX003 (ip), vehicle: saline sonified",100 % of control
same,T/C,[5],104 % of control
same,T/C,[6],104 % of control
C(=N\n1cnnc1)/c1ccc(/C=N/n2cnnc2)cc1,T/C,"dose: 100.0 mg/kg/injection, schedule: Q01DX001 (ip), vehicle: saline",118 % of control
same,T/C,"dose: 200.0 mg/kg/injection, schedule: Q01DX001 (ip), vehicle: saline",104 % of control
same,T/C,"dose: 400.0 mg/kg/injection, schedule: Q01DX001 (ip), vehicle: saline",95 % of control
O=C1c2ccccc2C(=O)C1(Cl)C(Cl)c1ccc([N+](=O)[O-])cc1 (configuration not stated),T/C,[1],105 % of control
same,T/C,[3],90 % of control
same,T/C,[7],100 % of control
COC1=C(NCc2ccccc2)C(=O)C(OC)=C(NCc2ccccc2)C1=O,T/C,[1],90 % of control
same,T/C,[2],95 % of control
same,T/C,[3],100 % of control
same,T/C,[4],86 % of control
same,T/C,[7],100 % of control
same,T/C,"dose: 400.0 mg/kg/injection, schedule: Q04DX003 (ip), vehicle: Klucel (hydroxypropylcellulose) (HPC)",95 % of control
CN(Cc1cnc2nc(N)nc(N)c2n1)c1c(Cl)cc(C(=O)NC(CCC(=O)O)C(=O)O)cc1Br (configuration not stated),T/C,"dose: 0.13 mg/kg/injection, schedule: Q04DX003 (ip), vehicle: saline",108 % of control
same,T/C,"dose: 0.19 mg/kg/injection, schedule: Q04DX003 (ip), vehicle: saline",116 % of control
same,T/C,"dose: 1.1 mg/kg/injection, schedule: Q04DX003 (ip), vehicle: saline",150 % of control
same,T/C,"dose: 6.3 mg/kg/injection, schedule: Q04DX003 (ip), vehicle: saline",150 % of control
same,T/C,"dose: 25.0 mg/kg/injection, schedule: Q01DX009 (ip), vehicle: saline",213 % of control
same,T/C,[8],261 % of control
same,T/C,[9],173 % of control
same,T/C,[10],271 % of control
same,T/C,"dose: 115.0 mg/kg/injection, schedule: Q04DX003 (ip), vehicle: saline",236 % of control
same,T/C,"dose: 175.0 mg/kg/injection, schedule: Q04DX003 (ip), vehicle: saline",272 % of control
same,T/C,[11],182 % of control
same,T/C,"dose: 264.0 mg/kg/injection, schedule: Q04DX003 (ip), vehicle: saline",254 % of control
same,T/C,"dose: 400.0 mg/kg/injection, schedule: Q04DX003 (ip), vehicle: saline",272 % of control
same,T/C,"dose: 600.0 mg/kg/injection, schedule: Q04DX003 (ip), vehicle: saline",90 % of control
CC(C)c1cccc(OS(=O)(=O)c2ccccc2[N+](=O)[O-])c1,T/C,[5],100 % of control
same,T/C,[6],100 % of control
same,T/C,[12],100 % of control
Cc1ccc(C2(C#N)CCCC2)cc1,T/C,[9],104 % of control
same,T/C,[11],113 % of control
O=C(COc1ccc(Cl)cc1)C1CSc2ccc3ccccc3c21 (configuration not stated),T/C,[5],95 % of control
same,T/C,[6],90 % of control
same,T/C,[12],95 % of control
CC1(c2ccco2)NC(=O)N(Cl)C1=O (configuration not stated),T/C,[8],89 % of control
same,T/C,[10],98 % of control
same,T/C,"dose: 200.0 mg/kg/injection, schedule: Q01DX009 (ip), vehicle: saline",105 % of control
CC(C)CCC[C@@H](C)[C@H]1CC[C@H]2[C@@H]3CC=C4C[C@@H](Cl)CC[C@]4(C)[C@H]3CC[C@]12C,T/C,"dose: 50.0 mg/kg/injection, schedule: Q04DX003 (sc), vehicle: Klucel (hydroxypropylcellulose) (HPC)",95 % of control
same,T/C,"dose: 100.0 mg/kg/injection, schedule: Q04DX003 (sc), vehicle: Klucel (hydroxypropylcellulose) (HPC)",104 % of control
same,T/C,"dose: 200.0 mg/kg/injection, schedule: Q04DX003 (sc), vehicle: Klucel (hydroxypropylcellulose) (HPC)",95 % of control
Cc1cc(Cl)ccc1NC(=O)c1ccc(Cl)cc1,T/C,"dose: 75.0 mg/kg/injection, schedule: Q01DX009 (ip), vehicle: Klucel (hydroxypropylcellulose) (HPC)",113 % of control
same,T/C,"dose: 150.0 mg/kg/injection, schedule: Q01DX009 (ip), vehicle: Klucel (hydroxypropylcellulose) (HPC)",95 % of control
same,T/C,"dose: 300.0 mg/kg/injection, schedule: Q01DX009 (ip), vehicle: Klucel (hydroxypropylcellulose) (HPC)",100 % of control
CCCCNC(C)(C)CCl,T/C,"dose: 1.56 mg/kg/injection, schedule: Q01DX009 (ip), vehicle: water",95 % of control
same,T/C,"dose: 3.12 mg/kg/injection, schedule: Q01DX009 (ip), vehicle: water",102 % of control
same,T/C,"dose: 3.12 mg/kg/injection, schedule: Q04DX003 (ip), vehicle: water",106 % of control
same,T/C,"dose: 6.25 mg/kg/injection, schedule: Q04DX003 (ip), vehicle: water",88 % of control
same,T/C,"dose: 12.5 mg/kg/injection, schedule: Q01DX009 (ip), vehicle: water",95 % of control
same,T/C,"dose: 12.5 mg/kg/injection, schedule: Q04DX003 (ip), vehicle: water",106 % of control
same,T/C,"dose: 25.0 mg/kg/injection, schedule: Q01DX009 (ip), vehicle: water",111 % of control
same,T/C,"dose: 25.0 mg/kg/injection, schedule: Q04DX003 (ip), vehicle: water",100 % of control and 106 % of control
same,T/C,"dose: 50.0 mg/kg/injection, schedule: Q01DX009 (ip), vehicle: water",104 % of control
O=C(CCl)NC(CO)C(=O)O (configuration not stated),T/C,"dose: 50.0 mg/kg/injection, schedule: Q04DX003 (ip), vehicle: saline",91 % of control
same,T/C,"dose: 100.0 mg/kg/injection, schedule: Q04DX003 (ip), vehicle: saline",100 % of control
same,T/C,"dose: 200.0 mg/kg/injection, schedule: Q04DX003 (ip), vehicle: saline",91 % of control
Nc1ccc2c(c1)OCO2,T/C,"dose: 100.0 mg/kg/injection, schedule: Q01DX009 (sc), vehicle: olive oil, sesame oil, peanut oil",104 % of control
same,T/C,"dose: 100.0 mg/kg/injection, schedule: Q04DX003 (sc), vehicle: olive oil, sesame oil, peanut oil",91 % of control
same,T/C,"dose: 200.0 mg/kg/injection, schedule: Q04DX003 (sc), vehicle: olive oil, sesame oil, peanut oil",95 % of control
same,T/C,"dose: 400.0 mg/kg/injection, schedule: Q04DX003 (sc), vehicle: olive oil, sesame oil, peanut oil",116 % of control
CCOC(=O)/C(=C(/N)C1OC(COC(c2ccccc2)(c2ccccc2)c2ccccc2)C2OC(C)(C)OC12)C1CC(=O)N(C)C1=O (configuration not stated),T/C,[13],99 % of control
same,T/C,[9],90 % of control
Clc1nc(Cl)c(Nc2ccn[nH]2)nc1Cl,T/C,[13],100 % of control
same,T/C,[9],95 % of control and 100 % of control
same,T/C,[11],100 % of control
same,T/C,"dose: 400.0 mg/kg/injection, schedule: Q01DX009 (ip), vehicle: saline with Tween-80",95 % of control
CN[C@H]1CC[C@]23C[C@]24CC[C@]2(C)[C@@H]([C@H](C)N(C)C)CC[C@@]2(C)[C@@H]4CC[C@H]3C1(C)C,T/C,"dose: 2.6 mg/kg/injection, schedule: Q01DX010 (ip), vehicle: saline",90 % of control
same,T/C,"dose: 4.0 mg/kg/injection, schedule: Q01DX010 (ip), vehicle: saline",100 % of control
same,T/C,"dose: 6.6 mg/kg/injection, schedule: Q01DX010 (ip), vehicle: saline",118 % of control
same,T/C,"dose: 8.8 mg/kg/injection, schedule: Q01DX010 (ip), vehicle: carboxymethylcellulose (CMC)",100 % of control
same,T/C,"dose: 10.0 mg/kg/injection, schedule: Q01DX010 (ip), vehicle: saline",100 % of control
same,T/C,"dose: 13.3 mg/kg/injection, schedule: Q01DX010 (ip), vehicle: carboxymethylcellulose (CMC)",105 % of control
same,T/C,"dose: 16.0 mg/kg/injection, schedule: Q01DX010 (ip), vehicle: saline",113 % of control
same,T/C,"dose: 20.0 mg/kg/injection, schedule: Q01DX010 (ip), vehicle: carboxymethylcellulose (CMC)",115 % of control
same,T/C,"dose: 26.0 mg/kg/injection, schedule: Q01DX010 (ip), vehicle: saline",90 % of control
same,T/C,"dose: 30.0 mg/kg/injection, schedule: Q01DX010 (ip), vehicle: carboxymethylcellulose (CMC)",94 % of control
same,T/C,"dose: 45.0 mg/kg/injection, schedule: Q01DX010 (ip), vehicle: carboxymethylcellulose (CMC)",94 % of control
